Assay [1] concerns PC-3. Nature of the assay: Antiproliferative activity against human PC3 cells after 72 hrs by MTS assay. In kind it is functional.
Assay [2] deals with U-87 MG. The assay is described as follows: Antiproliferative activity against human U87 cells after 72 hrs by MTS assay. Format: functional, U-87MG ATCC.
For assay [3], the system named is A549. Nature of the assay: Antiproliferative activity against human A549 cells after 72 hrs by MTS assay. Format: functional. On the technique in general: Tetrazolium dyes change colour on reduction, which living cells bring about.
The test system of assay [4] is BXPC-3. Nature of the assay: Antiproliferative activity against human BxPC3 cells after 72 hrs by MTS assay. In kind it is functional.
Assay [5] has as its system HT-29. The assay is described as follows: Antiproliferative activity against human HT-29 cells in presence of isoCA-4 after 72 hrs by MTS assay relative to control. Format: functional, cell-based. Particulars: HT-29, 72 h.
For assay [6], the system named is HCT-116. Nature of the assay: Antiproliferative activity against human HCT116 cells after 72 hrs by MTS assay. In kind it is functional.
Assay [7] concerns HT-29. Nature of the assay: Antiproliferative activity against human HT-29 cells after 72 hrs by MTS assay. In kind it is functional.
Assay [8] relates to HT-29. Nature of the assay: Antiproliferative activity against human HT-29 cells assessed as cell viability after 72 hrs by MTS assay relative to control. In kind it is functional.
Assay [9] concerns MCF7. The assay is described as follows: Antiproliferative activity against human MCF7 cells after 72 hrs by MTS assay. In kind it is functional.
Assay [10] has as its system MIA PaCa-2. Nature of the assay: Antiproliferative activity against human MIAPaCa2 cells after 72 hrs by MTS assay. In kind it is functional.
Assay [11] relates to K562. The assay is described as follows: Antiproliferative activity against human K562 cells after 72 hrs by MTS assay. In kind it is functional.
The test system of assay [12] is K-562R. The assay is described as follows: Antiproliferative activity against human K562R cells after 72 hrs by MTS assay. In kind it is functional.

Where only a bound is given, the exact number is not on record here.

Usually GI50 stands for the concentration giving 50% growth inhibition. Low values mean greater sensitivity of the cells, high ones lower sensitivity of the cells. The IC50 is the concentration needed to halve the response being measured. As to `CC(/C=C/C(=O)NO)=C\[C@@H](C)C(=O)c1ccc(N(C)C)cc1` [TRICHOSTATIN], the GI50 in assay [1] is 387 nM; in assay [2], 1040 nM; in assay [3], 80 nM; in assay [4], 100 nM; in assay [6], 35 nM; in assay [7], 34.1 nM. The GI50 is 45 nM in assay [9], 200 nM in assay [10], 262 nM in assay [11] and 88 nM in assay [12]. The IC50 in [5] was found to be 3.8 nM. The Activity in assay [8] is <20%.
